Reference: patent publication US20240108602A1, “TREATMENT OF MENTAL DISORDERS” (GH Research Ireland Limited, priority 2022, published 2024)

Tested on: patients with postpartum depression (PPD)
Experiment: Clinical trial of inhaled 5-MeO-DMT (IDR) in patients with postpartum depression
Method: The single-arm, open-label clinical trial will involve 15 adult female patients with clinically diagnosed postpartum depression (PPD).
The second dose (12 mg) will only be administered if: • a. A peak experience (total score of ≥75) has not been achieved following the 6 mg dose, and • b. The 6 mg dose was safe and well-tolerated according to the investigator, • c. Any psychoactive effects (PsE) of the prior dose have subsided, and • d. Pre-dose vital parameters and forced expiratory volume in one second (FEV1) are in normal range, or if outside of the normal range, are not clinically significant according to the investigator. • 3. Similarly, a third dose (18 mg) will only be administered if: • a. A peak experience (total score of ≥75) has not been achieved following the 12 mg dose, and • b. The 12 mg dose was safe and well-tolerated according to the investigator, and • c. Any PsE of the prior dose have subsided, and • d. Pre-dose vital parameters and forced expiratory volume in one second (FEV1) are in normal range, or if outside of the normal range, are not clinically significant according to the investigator.
The patients will be assessed for a peak psychedelic experience (based on a patient-scored visual analogue scale, the PE scale), sedation, and other endpoints after dosing.
Follow-up visits are planned for Day 1, and Day 7 after the dosing day.
The following criteria must be met by all patients considered for clinical trial participation: • 1. Is female and in the age range between 18 and 45 years (inclusive) at screening. • 2. Has a body mass index (BMI) in the range of 18.5 and 35 kg/m^2 (inclusive) at screening. • 3. Meets the trial criteria for PPD as assessed by a trial psychiatrist or registered psychologist: • a. Diagnosis of Major Depressive Disorder without psychotic features, confirmed by the Mini-International Neuropsychiatric Interview (MINI), with peri-partum onset that began no earlier than gestation and no later than the first 4 weeks postpartum. • b. Has a Montgomery-Åsberg Depression Rating Scale (MADRS) total score of equal to or greater than 28 at screening and pre-dose on Day 0. • 6. […] Patients must have a negative pregnancy test at screening and on the pre-test day (Day−1). • 5. Is willing to delay start of other antidepressant or anxiety medication until after the end of the trial at Day 7 and agrees to keep any psychotherapy unchanged during the trial.

COc1ccc2[nH]cc(CCN(C)C)c2c1 [5-MeO-DMT]
ECG, safety laboratory analyses, CADSS (PPD patient 1): unremarkable | MADRS response (at least 50% improvement) and MADRS remission (total score 10 or less) (PPD patient 1): fulfilled standard criteria | reported adverse events (mild, resolved spontaneously) (PPD patient 1): cramping left abdominal pain and headache | MADRS Apparent sadness improvement (PPD patient 1, 2 hr): 5 | MADRS Apparent sadness score (PPD patient 1, 2 hr): 0 | MADRS Concentration Difficulties improvement (PPD patient 1, 2 hr): 0 | MADRS Concentration Difficulties score (PPD patient 1, 2 hr): 0 | MADRS Inability to Feel improvement (PPD patient 1, 2 hr): 3 | MADRS Inability to Feel score (PPD patient 1, 2 hr): 0 | MADRS Inner Tension improvement (PPD patient 1, 2 hr): 5 | MADRS Inner Tension score (PPD patient 1, 2 hr): 0 | MADRS Lassitude improvement (PPD patient 1, 2 hr): 3 | MADRS Lassitude score (PPD patient 1, 2 hr): 0 | MADRS Pessimistic Thoughts improvement (PPD patient 1, 2 hr): 4 | MADRS Pessimistic Thoughts score (PPD patient 1, 2 hr): 0 | MADRS Reduced Sleep improvement (PPD patient 1, 2 hr): 0 | MADRS Reduced Sleep score (PPD patient 1, 2 hr): 5 | MADRS Reduced appetite improvement (PPD patient 1, 2 hr): 0 | MADRS Reduced appetite score (PPD patient 1, 2 hr): 0 | MADRS Reported sadness improvement (PPD patient 1, 2 hr): 4 | MADRS Reported sadness score (PPD patient 1, 2 hr): 0 | MADRS Suicidal Thoughts improvement (PPD patient 1, 2 hr): 0 | MADRS Suicidal Thoughts score (PPD patient 1, 2 hr): 0 | Total MADRS improvement (PPD patient 1, 2 hr): 24 | Total MADRS score (PPD patient 1, 2 hr): 5 | BPRS Anxiety improvement (PPD patient 1, Day 1): 6 | BPRS Anxiety score (PPD patient 1, Day 1): 1 | BPRS Blunted affect improvement (PPD patient 1, Day 1): 0 | BPRS Blunted affect score (PPD patient 1, Day 1): 1 | BPRS Conceptual disorganization improvement (PPD patient 1, Day 1): 0 | BPRS Conceptual disorganization score (PPD patient 1, Day 1): 1 | BPRS Depressive Mood improvement (PPD patient 1, Day 1): 5 | BPRS Depressive Mood score (PPD patient 1, Day 1): 1 | BPRS Disorientation improvement (PPD patient 1, Day 1): 0 | BPRS Disorientation score (PPD patient 1, Day 1): 1 | BPRS Emotional withdrawal improvement (PPD patient 1, Day 1): 4 | BPRS Emotional withdrawal score (PPD patient 1, Day 1): 1 | BPRS Excitement improvement (PPD patient 1, Day 1): 1 | BPRS Excitement score (PPD patient 1, Day 1): 1 | BPRS Grandiosity improvement (PPD patient 1, Day 1): 0 | BPRS Grandiosity score (PPD patient 1, Day 1): 1 | BPRS Guilt feelings improvement (PPD patient 1, Day 1): 5 | BPRS Guilt feelings score (PPD patient 1, Day 1): 1 | BPRS Hallucinatory behaviour improvement (PPD patient 1, Day 1): 0 | BPRS Hallucinatory behaviour score (PPD patient 1, Day 1): 1 | BPRS Hostility improvement (PPD patient 1, Day 1): 0 | BPRS Hostility score (PPD patient 1, Day 1): 1 | BPRS Mannerisms and Posturing improvement (PPD patient 1, Day 1): 0 | BPRS Mannerisms and Posturing score (PPD patient 1, Day 1): 1 | BPRS Motor retardation improvement (PPD patient 1, Day 1): 0 | BPRS Motor retardation score (PPD patient 1, Day 1): 1 | BPRS Somatic Concern improvement (PPD patient 1, Day 1): 5 | BPRS Somatic Concern score (PPD patient 1, Day 1): 1 | BPRS Suspiciousness improvement (PPD patient 1, Day 1): 0 | BPRS Suspiciousness score (PPD patient 1, Day 1): 1 | BPRS Tension improvement (PPD patient 1, Day 1): 5 | BPRS Tension score (PPD patient 1, Day 1): 1 | BPRS Uncooperativeness improvement (PPD patient 1, Day 1): 0 | BPRS Uncooperativeness score (PPD patient 1, Day 1): 1 | BPRS Unusual Thought Content improvement (PPD patient 1, Day 1): 0 | BPRS Unusual Thought Content score (PPD patient 1, Day 1): 1 | MADRS Apparent sadness improvement (PPD patient 1, Day 1): 5 | MADRS Apparent sadness score (PPD patient 1, Day 1): 0 | MADRS Concentration Difficulties improvement (PPD patient 1, Day 1): 0 | MADRS Concentration Difficulties score (PPD patient 1, Day 1): 0 | MADRS Inability to Feel improvement (PPD patient 1, Day 1): 3 | MADRS Inability to Feel score (PPD patient 1, Day 1): 0 | MADRS Inner Tension improvement (PPD patient 1, Day 1): 5 | MADRS Inner Tension score (PPD patient 1, Day 1): 0 | MADRS Lassitude improvement (PPD patient 1, Day 1): 3 | MADRS Lassitude score (PPD patient 1, Day 1): 0 | MADRS Pessimistic Thoughts improvement (PPD patient 1, Day 1): 4 | MADRS Pessimistic Thoughts score (PPD patient 1, Day 1): 0 | MADRS Reduced Sleep improvement (PPD patient 1, Day 1): 5 | MADRS Reduced Sleep score (PPD patient 1, Day 1): 0 | MADRS Reduced appetite improvement (PPD patient 1, Day 1): 0 | MADRS Reduced appetite score (PPD patient 1, Day 1): 0 | MADRS Reported sadness improvement (PPD patient 1, Day 1): 4 | MADRS Reported sadness score (PPD patient 1, Day 1): 0 | MADRS Suicidal Thoughts improvement (PPD patient 1, Day 1): 0 | MADRS Suicidal Thoughts score (PPD patient 1, Day 1): 0 | Total MADRS improvement (PPD patient 1, Day 1): 29 | Total MADRS score (PPD patient 1, Day 1): 0 | BIMF TOTAL Δ vs Day 0 (PPD patient 1, Day 7): 13 | BIMF domain Adjustment % Improvement (PPD patient 1, Day 7): 20.00% | BIMF domain Adjustment score (PPD patient 1, Day 7): 6 | BIMF domain Adjustment Δ vs Day 0 (PPD patient 1, Day 7): 1 | BIMF domain Infant Care % Improvement (PPD patient 1, Day 7): 0.00% | BIMF domain Infant Care score (PPD patient 1, Day 7): 12 | BIMF domain Infant Care Δ vs Day 0 (PPD patient 1, Day 7): 0 | BIMF domain Management % Improvement (PPD patient 1, Day 7): 18% | BIMF domain Management score (PPD patient 1, Day 7): 33 | BIMF domain Management Δ vs Day 0 (PPD patient 1, Day 7): 5 | BIMF domain Mother-Child Interaction score (PPD patient 1, Day 7): 17 | BIMF domain Mother-Child Interaction Δ vs Day 0 (PPD patient 1, Day 7): 2 | BIMF domain Psychological Well-being score (PPD patient 1, Day 7): 53 | BIMF domain Psychological Well-being Δ vs Day 0 (PPD patient 1, Day 7): 9 | BIMF domain Self-Care % Improvement (PPD patient 1, Day 7): 44% | BIMF domain Self-Care score (PPD patient 1, Day 7): 13 | BIMF domain Self-Care Δ vs Day 0 (PPD patient 1, Day 7): 4 | BIMF domain Social Support score (PPD patient 1, Day 7): 18 | BIMF domain Social Support Δ vs Day 0 (PPD patient 1, Day 7): 1 | BIMF item 1 (I am a good mother) score (PPD patient 1, Day 7): 6 | BIMF item 1 Δ vs Day 0 (PPD patient 1, Day 7): 0 | BIMF item 2 (I feel rested) score (PPD patient 1, Day 7): 2 | BIMF item 2 Δ vs Day 0 (PPD patient 1, Day 7): 2 | BIMF item 3 (comfortable with the way I've chosen to feed my baby) score (PPD patient 1, Day 7): 6 | BIMF item 3 Δ vs Day 0 (PPD patient 1, Day 7): 0 | BIMF item 4 (My baby and I understand each other) score (PPD patient 1, Day 7): 5 | BIMF item 4 Δ vs Day 0 (PPD patient 1, Day 7): 0 | BIMF item 5 (able to relax and enjoy time with my baby) score (PPD patient 1, Day 7): 6 | BIMF item 5 Δ vs Day 0 (PPD patient 1, Day 7): 1 | BIMF item 6 (people I can trust to care for my baby when I need a break) score (PPD patient 1, Day 7): 6 | BIMF item 6 Δ vs Day 0 (PPD patient 1, Day 7): 0 | BIMF item 7 Δ vs Day 0 (PPD patient 1, Day 7): 0 | BIMF item 8 (getting enough adult interaction) score (PPD patient 1, Day 7): 6 | BIMF item 8 Δ vs Day 0 (PPD patient 1, Day 7): 0 | BIMF item 9 (getting enough encouragement from other people) score (PPD patient 1, Day 7): 6 | BIMF item 9 Δ vs Day 0 (PPD patient 1, Day 7): 1 | BIMF item 10 (I trust my own feelings (instincts)) score (PPD patient 1, Day 7): 6 | BIMF item 10 Δ vs Day 0 (PPD patient 1, Day 7): 1 | BIMF item 11 (a little time each week to do something for myself) score (PPD patient 1, Day 7): 6 | BIMF item 11 Δ vs Day 0 (PPD patient 1, Day 7): 1
